Test results: patent US5532231A, “Antibacterial agent” (priority 1994, dated 1996)

Columns and labels:
E. coli ESS [1] = experiment: Antimicrobial spectrum, liquid media, viable cell count; type: cell-based, Escherichia coli; conditions: saturating concentrations
Description: (§1) Saturated solutions of TA and Focusin were prepared by adding 1.14 μg TA and 7 μg Focusin to 1 ml LB (final conc. of 1% ethanol). About 10^5 bacteria of various strains were then added. The control was bacteria in the same medium with no antibacterial agents. The bacteria were introduced at 37° C. with shaking at 100 rpm. When the control became turbid, viable cell count was performed on LB agar plates. Growth inhibition is presented as percentage of the no antibiotic control.

E. coli K-12 = experiment: as above; type: cell-based, Escherichia coli; conditions: saturating concentrations
Description: as §1

Enterobacter = experiment: as above; type: cell-based; conditions: saturating concentrations
Description: as §1

Erwinia herbicola = experiment: as above; type: cell-based; conditions: saturating concentrations
Description: as §1

Klebsiella Gr47 = experiment: as above; type: cell-based; conditions: saturating concentrations; hospital strain
Description: as §1

Proteus vulgaris = experiment: as above; type: cell-based; conditions: saturating concentrations
Description: as §1

Providencia strautii = experiment: as above; type: cell-based; conditions: saturating concentrations
Description: as §1

Salmonella thyphimurium = experiment: as above; type: cell-based; conditions: saturating concentrations
Description: as §1

Staphylococcus albus = experiment: as above; type: cell-based
Description: as §1

Staphylococcus aureas = experiment: as above; type: cell-based, Staphylococcus aureus; conditions: saturating concentrations
Description: as §1

Mycobacteria smegmatis = experiment: as above; type: cell-based, Mycobacterium smegmatis; conditions: saturating concentrations
Description: as §1

E. coli ESS [2] = experiment: Killing effect of the washed treated mouse tissue; type: cell-based, Escherichia coli; conditions: for Inhibition % by the treated tissue*** / Inhibition % by the treated tissue**: 10 μg Focusin; for Inhibition % by the treated tissue***: after third transfer
Description: Focusin was tested in the same manner as that described above (under 8.1) with the exception that the tissues in the test tube were washed four times with a solution of 1 ml sterile saline. Each saline wash was for 1 hour at 37° C. Following incubation, the washing saline solution was added to an exponentially growing cultures of E. coli ESS in a concentration of 10^5 cells/ml.
The cultures with the saline wash were incubated at 37° C. for 6 hours and then viable cell count was performed in order to estimate the amount of killing by the antibacterial agent that were released from the tissues. After the four washes the tissues were transferred to 10^5 E. coli ESS log cultures and were then incubated for 5 hours. The tissues were transferred in this way for three times, each time the percentage of inhibition by the treated tissue was measured by viable count.
The tissues were treated as described in Section 8.2 above.
After the fourth wash, the treated tissues were transferred to E. coli ESS cultures (10^5 cells) in nutrient broth. The culture tubes were then incubated at 37° C. for 6 hours and the extent of growth inhibition was measured by viable cell count. The treated tissues were transferred to E. coli cultures two more times (a total of three times), and each time the percentage of growth inhibition by the treated tissues was checked.

CCCC1OC(=O)C(C)CC(C)CCCCC(=O)CCCC(CC)CCCC(COC)CCC(O)C(O)CC(O)CNC1=O (centres unmarked) [Focusin] gave a killing (E. coli ESS [1]) of 100%, a killing (E. coli K-12) of 100% and a killing (Enterobacter) of 100%. For the same compound, the killing (Erwinia herbicola) was 100%, the killing (Klebsiella Gr47) was 100% and the killing (Proteus vulgaris) was 90%. For the same compound, the killing (Providencia strautii) was 100%, the killing (Salmonella thyphimurium) was 40% and the “incubation time after which the strain began to show sensitivity” value (Staphylococcus albus; saturating concentrations) was greater than 46 h. For the same compound, the killing (Staphylococcus albus; saturating concentrations (Focusin), on the 46th hour) was 73%, the killing (Staphylococcus aureas) was 100% and the killing (Mycobacteria smegmatis) was 0%. For the same compound, the “inhibition by the washed tissues containing bound focusin” value (E. coli ESS [2]; all tissues, first transfer) was no less than 99%, the “inhibition after the third transfer (in words)” value (E. coli ESS [2]; bladder and eye) was “no inhibition was observed” and the “Inhibition % by the treated tissue***” value (E. coli ESS [2]; bladder) was 0%. The “Inhibition % by the treated tissue**” value (E. coli ESS [2]; bladder, first transfer) was greater than 99%, the “Inhibition % by the treated tissue***” value (E. coli ESS [2]; eye) was 0% and the “Inhibition % by the treated tissue**” value (E. coli ESS [2]; eye, first transfer) was greater than 99%. For the same compound, the “Inhibition % by the treated tissue***” value (E. coli ESS [2]; heart) was 98%, the “Inhibition % by the treated tissue**” value (E. coli ESS [2]; heart, first transfer) was 100% and the “Inhibition % by the treated tissue***” value (E. coli ESS [2]; intestine) was 38%. For the same compound, the “Inhibition % by the treated tissue**” value (E. coli ESS [2]; intestine, first transfer) was 100%, the “Inhibition % by the treated tissue***” value (E. coli ESS [2]; kidney) was 90% and the “Inhibition % by the treated tissue**” value (E. coli ESS [2]; kidney, first transfer) was 100%. For the same compound, the “Inhibition % by the treated tissue***” value (E. coli ESS [2]; liver) was 100%, the “Inhibition % by the treated tissue**” value (E. coli ESS [2]; liver, first transfer) was 99% and the “Inhibition % by the treated tissue***” value (E. coli ESS [2]; lungs) was 17%. For the same compound, the “Inhibition % by the treated tissue**” value (E. coli ESS [2]; lungs, first transfer) was 100%, the “Inhibition % by the treated tissue***” value (E. coli ESS [2]; spleen) was 98% and the “Inhibition % by the treated tissue**” value (E. coli ESS [2]; spleen, first transfer) was 100%. The “Inhibition % by the treated tissue***” value (E. coli ESS [2]; teeth) was 91% and the “Inhibition % by the treated tissue**” value (E. coli ESS [2]; teeth, first transfer) was 100%.
